Measurements taken from US6004959A, “Alkyloxyamino substituted fluorenones and their use as protein kinase-C inhibitors” (Hoechst Marion Roussel, Inc., priority 1997, dated 1999).
Counter-ions that a name gives are not always drawn.

Each molecule was assayed against Protein kinase C (PKC) (assay: Protein kinase C assay (96-well, H1 histone phosphorylation, 32P-ATP)). Details: PKC partially purified from rat brain; H1 histone 200 μg, 50 μM ATP, 5-7 min, room temperature; estimated error of IC50 less than 10%.
Format: biochemical
Procedure: Protein kinase C (PKC) was partially purified from the cytosol of rat brains as described by […]., Thromb. Res. 44:649-660, 1986. After removing the brains, all manipulations were carried out at 4° C. Briefly, the cerebellum was removed from 8-10 rat brains and each brain was then homogenized in 9 ml sucrose/EDTA (0.32 M sucrose, 1 mM EDTA, 5 mM Tris, pH 7.4). The pooled homogenate was then centrifuged at 1000×g for 10 min at 4° C., the pellet resuspended in the same volume of fresh sucrose/EDTA and recentrifuged at 1000×g for 10 min. at 4° C. The supernatants from each of these spins was pooled and centrifuged at 25,700×g for 30 min. at 4° C., and the resulting pellet homogenized in 20 ml of buffer A. (20 mM Tris pH 7.5, 0.1 mM calcium chloride, 0.4 mM leupeptin), at 4° C. Membrane associated PKC was then pelleted by centrifugation at 45,700×g at 4° C. for 15 min. and resuspended in 20 ml of buffer A. This step was repeated for a total of 3 centrifugations, discarding the supernatants and finally resuspending the pellet in 20 ml of buffer B (20 mM Tris pH 7.5, 1 mM EGTA, 1 mM EDTA, and 0.01 mM leupeptin) and stirring on ice for 30 min. Disassociated PKC was then collected by centrifuging at 45,700×g at 4° C. for 15 min. The pellet was discarded and the supernatant centrifuged at 100,000×g at 4° C. for 60 min. The pellet was again discarded and the supernatant was adjusted to remove all EDTA and EGTA by adding sufficient volume of a stock solution containing 100 mM each CaCl2 and MgCl2 to give a final concentration of 1 mM Ca^++ and 1 mM Mg^++. The resulting slurry was then applied to a 12 cm×1 cm DE-52 (DEAE cellulose, Whatman®) column previously equilibrated with buffer B. […] After washing the column with 70 ml of buffer B to remove unbound proteins, undesired proteins were eluted with 40 ml of buffer B containing 40 mM NaCl and the PKC containing fraction eluted with 20 ml of buffer B containing 150 mM NaCl. The PKC eluate was then concentrated to about 5 ml using an Amicon® ultrafiltration cell fitted with a PM-10 membrane, and excess NaCl removed by adding back 30 ml 5 mM Tris pH 7.4 and reconcentrating to a final volume of about 5 ml. The concentrated and desalted PKC prep was then adjusted to contain 10% glycerol and 0.5% Triton X-100 before aliquoting and storing 200 μL volumes at -70° C. Frozen preps were stable for at least 3 months at -70°0 C. Protein kinase C was assayed using a semi-automated 96-well plate procedure based upon the procedures of Aftab and Hait, and […] and Vial (Aftab, D. T. and W. N. Hait., Anal Biochem. 187:84-88. 1990.; […]. and Vial, H. J., Anal Biochem. 184:283-290. 1990). Briefly, each well of a 96 well "u" well microtiter plate received a total of 100 μl assay volume consisting of final concentrations of 30 mM Tris pH 7.4, 10 mM MgSO4, 1 mM EGTA, 200 μg Hl histone (Sigma Type III-S H5505), 50 μM ATP, 0.5 μCi 30 Ci/mmol ^32 P-ATP, and 30 μl PKC extract diluted in 5 mM Tris, pH 7.4 containing 1 mg per ml each of leupeptin, pepstatin and chymastatin, and 1 mM phenylmethylsulfonylfluoride. Reactions were started by adding the PKC extract and stopped by the addition of 50 μl 40% trichloroacetic acid, followed by 25 μl of 50 mM unlabelled ATP and 25 μl of 0.5% bovine serum albumin, and then collected on glass fiber filters using a Skatron® automatic micro cell harvester. Samples were washed for 30 seconds with 5% trichloroacetic acid, dried for 5 seconds on the harvester, and then transferred to scintillation vials for counting and subsequent data analysis. Reactions were run for five to seven minutes at room temperature. Data were fit to a competitive binding curve using the ENZFITTER® program (Biosoft). The error estimated for the IC50 values was less than 10%.

CCN(CC)CCOc1ccc2c(c1)C(=O)c1cccc(OCCN(CC)CC)c1-2 [I.D. No. 11,080, 2,5-Bis[(2-diethylamino)ethoxy]-fluoren-9-one] and CCN(CC)CCOc1ccc2c(c1)-c1c(OCCN(CC)CC)cccc1C2=O [I.D. No. 104,004, 3,5-Bis[(2-diethylamino)ethoxy]-fluoren-9-one] are within 1.5-fold of each other in IC50: 3 µM for the first, 4 µM for the second.

Going from CN(C)CCOc1ccc2c(c1)C(=O)c1cccc(OCCN(C)C)c1-2 [I.D. No. 101,209, 2,5-Bis-(2-dimethylamino-ethoxy)-fluoren-9-one] to CN(C)CCCOc1ccc2c(c1)C(=O)c1cccc(OCCCN(C)C)c1-2 [I.D. No. 102,352, 2,5-Bis-(3-dimethylamino-propoxy)-fluoren-9-one], the IC50 rises from 11 µM to 50 µM (4.5-fold).

CCCOc1ccc2c(c1)C(=O)c1cccc(OCCN(CC)CC)c1-2 [I.D. No. 103,049, 5-(2-Diethylamino-ethoxy)-2-propoxy-fluoren-9-one] and CCN(CC)CCOc1cccc2c1-c1ccc(OC)cc1C2=O [I.D. No. 103,949, 5-(2-Diethylamino-ethoxy)-2-methoxy-fluoren-9-one] are within 1.5-fold of each other in IC50: 9 µM for the first, 7 µM for the second.

First: CCN(CC)CCCOc1cccc2c1-c1ccc(OC)cc1C2=O [I.D. No. 103,388, 5-(3-Diethylamino-propoxy)-2-methoxy-fluoren-9-one]
Second: CCN(CC)CCOc1cccc2c1-c1c(OC)cccc1C2=O [I.D. No. 104,652, 4-(2-diethylamino-ethoxy)-5-methoxy-fluoren-9-one]
The IC50 of the first is 56-fold higher: 56 µM for the first, 1 µM for the second. The second is the more potent here.

Compared with CCN(CC)CCOc1cccc2c1C(=O)c1cccc(OCCN(CC)CC)c1-2 [I.D. No. 104,147, 1,5-Bis[(diethylamino)ethoxy]-fluoren-9-one], CCN(CC)CCOc1cccc2c1-c1c(OCCN(CC)CC)cccc1C2=O [I.D. No. 104,488] is 6.1-fold higher in IC50: 15 µM for the first, 92 µM for the second. The first is the more potent here.

Compared with CCCOc1cc(OC)c2c(c1N)C(=O)c1cccc(OCCN3CCOCC3)c1-2 [I.D. No. 104,427, 5-[2-(morpholino-4-yl)-ethoxy]-1-amino-4-methoxy-2-propyloxy-fluoren-9-one hydrochloride], CCCOc1cc(OC)c2c(c1)C(=O)c1cccc(OCCN3CCOCC3)c1-2 [I.D. No. 104,439, 5-[2-(morpholino-4-yl)-ethoxy]-4-methoxy-2-propyloxy-fluoren-9-one hydrochloride] is higher in IC50: 2.3 µM for the first, over 10 µM for the second.

First: CCCOc1cc(OC)c2c(c1)C(=O)c1cccc(OCCN(CC)CC)c1-2 [I.D. No. 104,952, 5-(2-diethylamino-ethoxy)-4-methoxy-2-propoxy-fluoren-9-one]
Second: CCN(CC)CCOc1cccc2c1-c1c(OC)cc(OC)cc1C2=O [I.D. No. 105,950, 5-(2-Diethylamino-ethoxy)-2,4-dimethoxy-fluoren-9-one]
The IC50 of the first is 1.6-fold lower: 0.576 µM for the first, 0.9 µM for the second. The first is the more potent here.

Compared with CCN(CC)CCOc1cccc2c1-c1c(OC)cc(OC)c(N)c1C2=O [I.D. No. 105,473, 1-Amino-5-(2-diethylamino-ethoxy)-2,4-dimethoxy-fluoren-9-one hydrochloride], CCCOc1cc(OC)c2c(c1N)C(=O)c1cccc(OCCN(CC)CC)c1-2 [I.D. No. 105,509, 1-Amino-5-(2-diethylamino-ethoxy)-4-methoxy-2-propoxy-fluoren-9-one] is 2-fold lower in IC50: 0.16 µM for the first, 0.079 µM for the second. The second is the more potent here.

Molecule CCN(CC)CCOc1cc(OC)c2c(c1)C(=O)c1cccc(OCCN(CC)CC)c1-2 [I.D. No. 105,711, 2,5-bis-(2-diethylamino-ethoxy)-4-methoxy-fluoren-9-one] has an IC50 of 1.1 µM.
